16 molecules from patent US7825093B2 (priority 2006, dated 2010) can be followed below.

In one data set the target is T1, human Kv1.3 (CHO) (Homo sapiens, UniProt P22001).
T1 construct: expressed in transfected cells; host or cells: CHO
The format is cell-based.

Data set [1] deals with IL-2 production in human whole blood. The conditions noted are these: for IC50: read-out: WB/IL-2 (IC50).
The next data set addresses T2, human Kv1.1 (HEK293) (Homo sapiens, UniProt Q09470).
T2 construct: expressed in transfected cells; host or cells: HEK293
The format is cell-based.

Data set [2] deals with IL-2R on T cells in human whole blood. The format is cell-based.
Data set [3] concerns IFN-g production in human whole blood. Type of data set: cell-based. Conditions: for IC50: read-out: WB/IFNg (IC50).
The test system of data set [4] is CD40L on T cells in human whole blood. Type of data set: cell-based.
Another data set concerns the target human Kv1.3 channel (Homo sapiens, UniProt P22001). Type of data set: cell-based.

“Also recorded” adds a separate entry of the source. Bridge positions count the residues as written; N and C are the ends. Ends that are not written are not given here. Peptide text beside a SMILES is read from it.

Sequence of human Kv1.3 channel (P22001 whole entry): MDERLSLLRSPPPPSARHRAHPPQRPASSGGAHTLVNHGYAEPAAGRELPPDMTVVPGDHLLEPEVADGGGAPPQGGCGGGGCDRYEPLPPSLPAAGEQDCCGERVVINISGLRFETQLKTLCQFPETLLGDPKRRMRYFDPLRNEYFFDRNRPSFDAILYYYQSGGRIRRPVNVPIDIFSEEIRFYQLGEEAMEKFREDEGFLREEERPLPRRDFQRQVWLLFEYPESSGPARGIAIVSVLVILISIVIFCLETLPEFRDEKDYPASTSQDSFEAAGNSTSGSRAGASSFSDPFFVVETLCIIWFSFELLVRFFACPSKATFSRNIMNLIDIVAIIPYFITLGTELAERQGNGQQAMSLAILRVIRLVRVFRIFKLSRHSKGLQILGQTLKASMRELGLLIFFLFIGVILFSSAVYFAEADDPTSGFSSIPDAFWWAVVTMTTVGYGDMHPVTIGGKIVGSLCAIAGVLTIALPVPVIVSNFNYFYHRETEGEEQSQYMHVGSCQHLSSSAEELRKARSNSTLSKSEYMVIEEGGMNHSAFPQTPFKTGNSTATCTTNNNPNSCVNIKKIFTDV
T1 sequence (P22001 whole entry): as above
T2 sequence (Q09470 whole entry): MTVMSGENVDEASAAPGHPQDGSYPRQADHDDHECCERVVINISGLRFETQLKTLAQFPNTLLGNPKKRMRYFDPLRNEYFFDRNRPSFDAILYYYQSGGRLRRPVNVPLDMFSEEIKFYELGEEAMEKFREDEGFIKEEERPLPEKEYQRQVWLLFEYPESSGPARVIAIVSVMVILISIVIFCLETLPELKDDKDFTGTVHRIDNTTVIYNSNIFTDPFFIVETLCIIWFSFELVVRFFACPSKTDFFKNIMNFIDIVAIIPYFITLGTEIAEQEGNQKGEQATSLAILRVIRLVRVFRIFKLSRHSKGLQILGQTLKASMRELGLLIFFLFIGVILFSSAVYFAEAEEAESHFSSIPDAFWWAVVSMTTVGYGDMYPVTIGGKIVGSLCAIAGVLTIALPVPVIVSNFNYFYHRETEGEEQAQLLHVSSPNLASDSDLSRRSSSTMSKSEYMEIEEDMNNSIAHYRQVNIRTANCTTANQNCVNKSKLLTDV

For `CC[C@H](C)[C@@H]1NC(=O)[C@H](CCCCN)NC(=O)[C@@H](NC(=O)[C@H](CCCCN)NC(=O)[C@@H](NC(=O)[C@H](CC(N)=O)NC(=O)[C@@H](NC(=O)[C@@H](NC(=O)[C@@H](NC(=O)CN)C(C)C)[C@@H](C)CC)[C@@H](C)CC)C(C)C)CSSC[C@@H]2NC(=O)[C@H](CCCCN)NC(=O)CNC(=O)[C@H](Cc3ccccc3)NC(=O)[C@H](CCCNC(=N)N)NC(=O)[C@H](CCSC)NC(=O)CNC(=O)[C@H](C)NC(=O)[C@H](CCCCN)NC(=O)[C@H](CCCCN)NC(=O)[C@@H]3CSSC[C@@H](C(=O)N[C@H](C(=O)N4CCC[C@H]4C(=O)N[C@@H](CCCCN)C(=O)O)[C@@H](C)O)NC(=O)[C@H](Cc4c[nH]cn4)NC(=O)[C@H](CSSC[C@H](NC(=O)[C@H](CCC(N)=O)NC(=O)[C@H](CCCNC(=N)N)NC(=O)[C@H](CO)NC1=O)C(=O)N[C@@H](CC(C)C)C(=O)N[C@@H](CCC(=O)O)C(=O)N1CCC[C@H]1C(=O)N3)NC(=O)[C@H](CCCCN)NC(=O)CNC(=O)[C@H](CC(N)=O)NC(=O)[C@H](C)NC2=O` [OSK1[Ala-29]] (H-GVIINVKCKISRQCLEPCKKAGMRFGKCANGKCHCTPK-OH; disulfide 8-28, 14-33, 18-35), the “inhibition of the Kv1.3 current by IonWorks (in words)” value at human Kv1.3 (CHO) is reported as “potent inhibition of the Kv1.3 current”. Further, the “potency relative to cyclosporin A in blocking the cytokine response” value in data set [1] is listed as “several orders of magnitude more potent”. On human Kv1.1 (HEK293), the “selectivity over Kv1.1 by IonWorks (in words)” value was “improved selectivity over Kv1.1”.

Regarding “Fc-L10-ShK[2-35]: human IgG1 Fc fused via 10 amino acid linker to ShK[2-35]”, the “thapsigargin-induced upregulation of the IL-2R on T cells (in words)” value in data set [2] is recorded as “blocked”. In addition, the “thapsigargin-induced IFN-g production (in words)” value in data set [3] was “suppressed; also recorded: blocked”. Besides, the “stability in whole blood” value in data set [1] was “stable in whole blood at 37 °C for up to 48 hours”. The “thapsigargin-induced upregulation of CD40L on T cells (in words)” value in data set [4] is “blocked”.

As for “Fc-L-KTX1: bacterially expressed Fc-linker-KTX1 peptibody”, in the data set with human Kv1.3 channel, the “block of human Kv1.3 current (in words)” value was “concentration dependent block”.

On to “GGGGSGVIINVKCKISRQCLEPCKKAGMRFGKCMNGKCHCTPK [compound 1395]”, for which the IC50 in data set [3] is 2.2 nM; in data set [1], 1.36 nM.

Consider “GIINVKCKISAQCLKPCRDAGMRFGKCMNGKCACTPK [compound 4916]”, for which the IC50 in data set [3] was 2.24 nM; in data set [1] it was 1.5 nM.

In the case of “GVIINVKCKISAQCLKPCKDAGMRFGKCMNGKCHCTPK [compound 1392]”, the results for the IC50 in data set [3] and in data set [1] were 0.092 nM and 0.041 nM, respectively.

Turning to “GVIINVKCKISRQCLKPCKDAGMRFGKCMNGKCACTPK [compound 4990]”, the IC50 in data set [3] turned out to be 26.6 nM; in data set [1], 65.5 nM.

With “GVIINVKCKISRQCLKPCKDAGMRFGKCMNGKCHC [compound 1396]”, the IC50 in data set [3] was 6.99 nM; in data set [1], 3.94 nM.

On to “GVIINVKCKISRQCLKPCKDAGMRFGKCMNGKCHCGGG [compound 1274]”, for which the figures for the IC50 in data set [3] and in data set [1] were 3.64 nM and 2.64 nM, respectively.

“GVIINVKCKISRQCLKPCKDAGMRFGKCMNGKCHCTPK [compound 296]”: the IC50 in data set [3] amounted to 1.32 nM; in data set [1] it was 1.58 nM.

Regarding “GVIINVKCKISRQCLKPCKDAGMRFGKCMNGKCHCYPK [compound 298]”, the results for the IC50 in data set [3] and in data set [1] were 0.923 nM and 0.639 nM, respectively.

On to “IbTx: BKCa channel inhibitor peptide, Bachem (QFTDVDCSVSKECWSVCKDLFGVDRGKCMGKKCRCYQ; Definition of Artificial Sequence: Synthetic peptide) [reference compound]”, for which the “thapsigargin-induced upregulation of the IL-2R on T cells (in words)” value in data set [2] is recorded as “no significant activity”. In data set [3], the “thapsigargin-induced IFN-g production (in words)” value was “no significant activity”. For the same molecule, the “thapsigargin-induced IL-2 production (in words)” value in data set [1] is reported as “no significant activity”. Moreover, the “thapsigargin-induced upregulation of CD40L on T cells (in words)” value in data set [4] is recorded as “no significant activity”.

Regarding “SEQ ID No: 4989: OSK1 analog without beta strand 1 (labeled des 1-7), Table 42 (CKISRQCLKPCKDAGMRFGKCMNGKCHC-NH2; ends and bridges not checked)”, the “blockade of the whole blood cytokine response (IL-2, IFNg), in words” value (“blockade” for short) in data set [1] is reported as “still retain activity in blocking inflammation”.

B1: MGGHHHHHHGGGPSVFLFPPKPKDTLMISRTPEVTCVVVDVSHEDPEVKFNWYVDGVEVHNAKTKPREEQYNSTYRVVSVLTVLHQDWLNGKEYKCKVSNKALPAPIEKTISGGGGSGGGGSGVIINVKCKISRQCLEPCKKAGMRFGKCMNGKCHCTPK (protein)
chain: MGGHHHHHHGGGPSVFLFPPKPKDTLMISRTPEVTCVVVDVSHEDPEVKFNWYVDGVEVHNAKTKPREEQYNSTYRVVSVLTVLHQDWLNGKEYKCKVSNKALPAPIEKTISGGGGSGGGGSGVIINVKCKISRQCLEPCKKAGMRFGKCMNGKCHCTPK
B1: the figures for the IC50 in data set [3] and in data set [1] were 55.2 nM and 38.5 nM, respectively.

B2: FcLoop-L2-ShK-L2: ShK inserted into the human IgG1 Fc loop with 2-Gly linkers (protein)
chain: MDKTHTCPPCPAPELLGGPSVFLFPPKPKDTLMISRTPEVTCVVVDVSHEDPEVKFNWYVDGVEVHNAKTKPREEQYNSTYRVVSVLTVLHQDWLNGKEYKCKVSNKALPAPIEKTISKAKGQPREPQVYTLPPSRDELGGRSCIDTIPKSRCTAFQCKHSMKYRLSFCRKTCGTCGGTKNQVSLTCLVKGFYPSDIAVEWESNGQPENNYKTTPPVLDSDGSFFLYSKLTVDKSRWQQGNVFSCSVMHEALHNHYTQKSLSLSPGK
modifications: Definition of Artificial Sequence: Synthetic protein
Take B2: in data set [1], the “IC50 values, whole blood cytokine response” value is “pM range” and the “blockade” value is “potent blockade of the whole blood cytokine response”.

B3: FcLoop-L2-OsK1-L2: OsK1 inserted into the human IgG1 Fc loop with 2-Gly linkers (protein)
chain: MDKTHTCPPCPAPELLGGPSVFLFPPKPKDTLMISRTPEVTCVVVDVSHEDPEVKFNWYVDGVEVHNAKTKPREEQYNSTYRVVSVLTVLHQDWLNGKEYKCKVSNKALPAPIEKTISKAKGQPREPQVYTLPPSRDELGGGVIINVKCKISRQCLEPCKKAGMRFGKCMNGKCHCTPKGGTKNQVSLTCLVKGFYPSDIAVEWESNGQPENNYKTTPPVLDSDGSFFLYSKLTVDKSRWQQGNVFSCSVMHEALHNHYTQKSLSLSPGK
modifications: Definition of Artificial Sequence: Synthetic protein
On to B3, for which, in data set [1], the “IC50 values, whole blood cytokine response” value is given as “pM range” and the “blockade” value is “potent blockade of the whole blood cytokine response”.
